# pEC50: −log10 of the molar value.
# Target: T1, human OX2R (Homo sapiens, UniProt O43614)
# T1 construct: expressed in transfected cells; host or cells: CHO (Chinese hamster ovary) cells grown under G418 selection
# T1 sequence (O43614 1-444): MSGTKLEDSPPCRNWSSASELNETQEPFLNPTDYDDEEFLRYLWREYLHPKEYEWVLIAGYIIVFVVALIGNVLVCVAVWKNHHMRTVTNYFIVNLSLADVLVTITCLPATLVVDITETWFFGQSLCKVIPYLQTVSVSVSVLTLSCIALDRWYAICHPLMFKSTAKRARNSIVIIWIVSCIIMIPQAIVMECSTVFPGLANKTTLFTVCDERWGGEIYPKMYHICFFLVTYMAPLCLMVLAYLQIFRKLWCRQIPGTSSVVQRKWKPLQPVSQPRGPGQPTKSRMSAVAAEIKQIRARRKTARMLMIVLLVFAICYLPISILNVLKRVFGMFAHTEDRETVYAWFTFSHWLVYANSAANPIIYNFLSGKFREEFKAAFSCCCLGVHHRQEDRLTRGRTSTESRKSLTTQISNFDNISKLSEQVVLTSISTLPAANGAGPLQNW
# Test: IPOne (IP-1 accumulation) assay in CHO cells expressing human OX2R
# Assay type: cell-based
# Conditions: for pEC50: CHO cells expressing human OX2R, IP-One assay, 2 h incubation, four parameter logistic fit, read-out: OX2R Potency, EC50; for % of maximum agonist effect (relative to Orexin A): percent effect vs mean max effect of a reference compound at 1 uM (100% activity vs Orexin A), human OX2R
# Excerpt: The utility of the compounds in accordance with the present invention as orexin receptor OX1R and/or OX2R agonists may be readily determined without undue experimentation by methodology well known in the art. Both the OX1R and/or OX2R G-coupled protein receptors (GPCRs) couple through the Gαq signaling pathway, which ultimately promotes calcium mobilization via inositol triphosphate (IP3) production. […] The utility of the compounds in accordance with the present invention as orexin receptor OX1R and/or OX2R agonists may be determined utilizing this assay.
# In a typical experiment, the OX1 and OX2 receptor agonist activity is determined in accordance with the following general experimental method. Chinese hamster ovary (CHO) cells expressing human OX1R and/or the human OX2R were grown in Iscove's modified DMEM containing glutaMAX™, 1% G418, 100 U/mL penicillin, 100 μg/mL streptomycin and 10% heat-inactivated qualified fetal bovine serum (FBS). […] During this incubation, IP-one detection reagents were prepared (38:1:1 lysis buffer:D2:AB-cryptate reagents).
# For each compound, data were fit to a four parameter logistic fit (ActivityBase software) and the EC50 was reported as the inflection point of the resulting curve. […] The intrinsic orexin receptor agonist activity of a compound which may be used in the present invention may be determined by these assays.
compound,measurement,setting,value
"CCN(C(=O)N[C@@H](CCC(F)(F)F)C(F)(F)F)[C@H](C)c1cc(-c2cc(OC)n3nccc3c2)c(OC)cn1 [Example 11-5, 1-ethyl-3-((S)-1,1,1,5,5,5-hexafluoropentan-2-yl)-1-((R)-1-(5-methoxy-4-(7-methoxypyrazolo[1,5-a]pyridin-5-yl)pyridin-2-yl)ethyl)urea]",pEC50,,9.22
same,% of maximum agonist effect (relative to Orexin A),,100.1%
"CCN(C(=O)NC(C)(C)C#N)[C@H](C)c1cccc(-c2cn3ccnc3c(OC)n2)c1 [Example 2-25, (R)-3-(2-cyanopropan-2-yl)-1-ethyl-1-(1-(3-(8-methoxyimidazo[1,2-a]pyrazin-6-yl)phenyl)ethyl)urea]",pEC50,,6.44
same,% of maximum agonist effect (relative to Orexin A),,98.0%
"CCN(C(=O)N[C@@H](CCC(F)(F)F)C(F)(F)F)C(=C(F)F)c1cc(-c2cn3ccnc3c(OC)n2)c(OC)cn1 [Example 28, (S)-1-(2,2-difluoro-1-(5-methoxy-4-(8-methoxyimidazo[1,2-a]pyrazin-6-yl)pyridin-2-yl)vinyl)-1-ethyl-3-(1,1,1,5,5,5-hexafluoropentan-2-yl)urea]",pEC50,,5.67
same,% of maximum agonist effect (relative to Orexin A),,97.2%
"CC[C@H](CCC(F)(F)F)NC(=O)N(CC)[C@H](C)c1cccc(-c2cc(OC(F)F)c3nccn3c2)c1 [Example 7-1, 1-((R)-1-(3-(8-(difluoromethoxy)imidazo[1,2-a]pyridin-6-yl)phenyl)ethyl)-1-ethyl-3-((R)-6,6,6-trifluorohexan-3-yl)urea]",pEC50,,7.53
same,% of maximum agonist effect (relative to Orexin A),,96.8%
"CC[C@H](CCC(F)(F)F)NC(=O)N(CC)[C@H](C)c1cccc(-c2cc(COC)c3nccn3c2)c1 [Example 7-4, 1-ethyl-1-((R)-1-(3-(8-(methoxymethyl)imidazo[1,2-a]pyridin-6-yl)phenyl)ethyl)-3-((R)-6,6,6-trifluorohexan-3-yl)urea]",pEC50,,6.23
same,% of maximum agonist effect (relative to Orexin A),,97.8%
"CCN(C(=O)N[C@@H](CCC(F)(F)F)C(F)(F)F)[C@H](C)c1cc(-c2cn3ccnc3c(OC)n2)c(OC)nn1 [Example 10-3, 1-ethyl-3-((S)-1,1,1,5,5,5-hexafluoropentan-2-yl)-1-((R)-1-(6-methoxy-5-(8-methoxyimidazo[1,2-a]pyrazin-6-yl)pyridazin-3-yl)ethyl)urea]",pEC50,,9.10
same,% of maximum agonist effect (relative to Orexin A),,101.7%
"CCc1cc(-c2cc([C@@H](C)N(CC)C(=O)N[C@@H](CCC(F)(F)F)C(F)(F)F)ncc2OC)cc2ccnn12 [Example 9-5, 1-ethyl-1-((R)-1-(4-(7-ethylpyrazolo[1,5-a]pyridin-5-yl)-5-methoxypyridin-2-yl)ethyl)-3-((S)-1,1,1,5,5,5-hexafluoropentan-2-yl)urea]",pEC50,,7.79
same,% of maximum agonist effect (relative to Orexin A),,99.6%
"CCC(CCC(F)(F)F)NC(=O)N(CC)[C@H](C)c1cccc(-c2cn3ccnc3cc2COC)c1 (stereo partly drawn) [Example 7-6, 1-ethyl-1-((R)-1-(3-(7-(methoxymethyl)imidazo[1,2-a]pyridin-6-yl)phenyl)ethyl)-3-(6,6,6-trifluorohexan-3-yl)urea]",pEC50,,5.85
same,% of maximum agonist effect (relative to Orexin A),,100.8%
"CCN(C(=O)N[C@@H](CCC(F)(F)F)C(F)(F)F)C(C)c1cc(-c2cn3ccnc3c(OC)n2)ncn1 (stereo partly drawn) [Example 13-2, 1-ethyl-3-((S)-1,1,1,5,5,5-hexafluoropentan-2-yl)-1-(1-(6-(8-methoxyimidazo[1,2-a]pyrazin-6-yl)pyrimidin-4-yl)ethyl)urea]",pEC50,,7.77
same,% of maximum agonist effect (relative to Orexin A),,101.4%
"CCN(C(=O)NC(C1CCC1)C(F)(F)F)[C@@H](c1cc(-c2cn3ccnc3c(OC)n2)c(OC)cn1)C(F)(F)F (stereo partly drawn) [Example 2-5, 3-(1-cyclobutyl-2,2,2-trifluoroethyl)-1-ethyl-1-((S)-2,2,2-trifluoro-1-(5-methoxy-4-(8-methoxyimidazo[1,2-a]pyrazin-6-yl)pyridin-2-yl)ethyl)urea]",pEC50,,7.97
same,% of maximum agonist effect (relative to Orexin A),,100.7%
"CCN(C(=O)N[C@@H](CCC(F)(F)F)C(F)(F)F)C(c1cnc(SC)c(-c2cc(OC)n3nccc3c2)c1)C(F)(F)F (stereo partly drawn) [Example 2-15, 1-ethyl-3-((S)-1,1,1,5,5,5-hexafluoropentan-2-yl)-1-(2,2,2-trifluoro-1-(5-(7-methoxypyrazolo[1,5-a]pyridin-5-yl)-6-(methylthio)pyridin-3-yl)ethyl)urea]",pEC50,,7.62
same,% of maximum agonist effect (relative to Orexin A),,98.4%
"CCN(C(=O)N[C@@H](CCC(F)(F)F)C(F)(F)F)C(c1cc(-c2cn3ccnc3c(OC)n2)cc(OC)n1)C(F)(F)F (stereo partly drawn) [Example 10-16, 1-ethyl-3-((S)-1,1,1,5,5,5-hexafluoropentan-2-yl)-1-(2,2,2-trifluoro-1-(6-methoxy-4-(8-methoxyimidazo[1,2-a]pyrazin-6-yl)pyridin-2-yl)ethyl)urea]",pEC50,,7.45
same,% of maximum agonist effect (relative to Orexin A),,97.9%
"CCN(C(=O)NCC(C)C(F)(F)F)[C@@H](c1cc(-c2cn3ccnc3c(OC)n2)c(OC)cn1)C(F)(F)F (stereo partly drawn) [Example 2-11, 1-ethyl-1-((S)-2,2,2-trifluoro-1-(5-methoxy-4-(8-methoxyimidazo[1,2-a]pyrazin-6-yl)pyridin-2-yl)ethyl)-3-(3,3,3-trifluoro-2-methylpropyl)urea]",pEC50,,7.52
same,% of maximum agonist effect (relative to Orexin A),,97.6%
"CCN(C(=O)N[C@@H](CCC(F)(F)F)C(F)(F)F)C(c1cnc(OC)c(-c2cn3ccnc3c(OC)n2)c1)C(F)(F)F (stereo partly drawn) [Example 2-50, 1-ethyl-3-((S)-1,1,1,5,5,5-hexafluoropentan-2-yl)-1-(2,2,2-trifluoro-1-(6-methoxy-5-(8-methoxyimidazo[1,2-a]pyrazin-6-yl)pyridin-3-yl)ethyl)urea]",pEC50,,8.85
same,% of maximum agonist effect (relative to Orexin A),,100.5%
"CC[C@H](CCC(F)(F)F)NC(=O)N(C)[C@H](C)c1cccc(-c2cn3ccnc3c(OC)n2)c1 [Example 2-58, 1-((R)-1-(3-(8-methoxyimidazo[1,2-a]pyrazin-6-yl)phenyl)ethyl)-1-methyl-3-((R)-6,6,6-trifluorohexan-3-yl)urea]",pEC50,,7.75
same,% of maximum agonist effect (relative to Orexin A),,100.0%
"CCN(C(=O)N[C@@H](C=C(C)C)C(F)(F)F)[C@H](C)c1cccc(-c2cn3ccnc3c(OC)n2)c1 [Example 5-2, 1-ethyl-1-((R)-1-(3-(8-methoxyimidazo[1,2-a]pyrazin-6-yl)phenyl)ethyl)-3-((S)-1,1,1-trifluoro-4-methylpent-3-en-2-yl)urea]",% of maximum agonist effect (relative to Orexin A),1 µM,99.1%
"CCN(C(=O)N[C@@H](CCCF)C(F)(F)F)[C@@H](c1cc(-c2cn3cc(C)nc3c(OC)n2)c(OC)cn1)C(F)(F)F [Example 3-2, 1-ethyl-3-((S)-1,1,1,5-tetrafluoropentan-2-yl)-1-((S)-2,2,2-trifluoro-1-(5-methoxy-4-(8-methoxy-2-methylimidazo[1,2-a]pyrazin-6-yl)pyridin-2-yl)ethyl)urea]",pEC50,,8.48
same,% of maximum agonist effect (relative to Orexin A),,102.4%
"CCN(C(=O)NC(CCC(F)(F)F)COC)[C@@H](c1cc(-c2cn3cc(C)nc3c(OC)n2)c(OC)cn1)C(F)(F)F (stereo partly drawn) [Example 2-49, 1-ethyl-1-((S)-2,2,2-trifluoro-1-(5-methoxy-4-(8-methoxy-2-methylimidazo[1,2-a]pyrazin-6-yl)pyridin-2-yl)ethyl)-3-(5,5,5-trifluoro-1-methoxypentan-2-yl)urea]",pEC50,,7.00
same,% of maximum agonist effect (relative to Orexin A),,100.1%
